Our source for the growth values is ChEMBL document CHEMBL2417474, “Synthesis, antiproliferative and anti-inflammatory activities of some novel 6-aryl-2-(p-(methanesulfonyl)phenyl)-4,5-dihydropyridazi-3(2H)-ones” (Eur J Med Chem, 2013).

Molecules are shown by their SMILES.

In one experiment the test system is HCT-15. Kind of experiment: Growth inhibition of human HCT15 cells assessed as cell growth at 10 uM after 48 hrs by sulforhodamine B assay. The class given is functional. The note with it: HCT-15, 48 h, read-out: Activity. On the technique in general: The SRB assay estimates cell density from bound dye.
In the next experiment the test system is NCI-H460. The experiment can be described thus: Growth inhibition of human NCI-H460 cells assessed as cell growth at 10 uM after 48 hrs by sulforhodamine B assay. It counts as functional. The note with it: NCI-H460, 48 h, read-out: Activity.

Consider `Cc1cc(O)ccc1C1=NN(c2ccc(S(C)(=O)=O)cc2)C(=O)CC1`, for which the growth at 10 µM in the experiment with HCT-15 was 44.9%; in the experiment with NCI-H460, 73.1%.
With `CCc1ccc(C2=NN(c3ccc(S(C)(=O)=O)cc3)C(=O)CC2)cc1`, the results for the growth at 10 µM in the experiment on HCT-15 and in the experiment on NCI-H460 were 22.1% and 10.6%, respectively.
